Measurements taken from ChEMBL document CHEMBL2203041, “Synthesis, biological assessment, and molecular modeling of racemic 7-aryl-9,10,11,12-tetrahydro-7H-benzo[7,8]chromeno[2,3-b]quinolin-8-amines as potential drugs for the treatment of Alzheimer's disease” (Eur J Med Chem, 2012).

Assays:
[1] = Neurotoxicity in Wistar rat primary cortical neurons assessed as decrease in cell viability at 100 uM by XTT assay; type: toxicity, cell-based; conditions: cerebral cortex neuron
[2] = in vitro; conditions: human, HepG2 cells
Description: Cytotoxicity against human HepG2 cells assessed as cell viability at 3 uM after 24 hrs by MTT assay relative to control

[3] = in vitro; conditions: human, HepG2 cells; remark: listed apart in the source
Description: Cytotoxicity against human HepG2 cells assessed as cell viability at 30 uM after 24 hrs by MTT assay relative to control

[4] = in vitro; conditions: human, HepG2 cells; remark: listed apart in the source
Description: Cytotoxicity against human HepG2 cells assessed as cell viability at 1 uM after 24 hrs by MTT assay relative to control

[5] = target: Acetylcholinesterase (Homo sapiens, UniProt P22303)
Sequence of Acetylcholinesterase (Homo sapiens, UniProt P22303) (P22303 whole entry): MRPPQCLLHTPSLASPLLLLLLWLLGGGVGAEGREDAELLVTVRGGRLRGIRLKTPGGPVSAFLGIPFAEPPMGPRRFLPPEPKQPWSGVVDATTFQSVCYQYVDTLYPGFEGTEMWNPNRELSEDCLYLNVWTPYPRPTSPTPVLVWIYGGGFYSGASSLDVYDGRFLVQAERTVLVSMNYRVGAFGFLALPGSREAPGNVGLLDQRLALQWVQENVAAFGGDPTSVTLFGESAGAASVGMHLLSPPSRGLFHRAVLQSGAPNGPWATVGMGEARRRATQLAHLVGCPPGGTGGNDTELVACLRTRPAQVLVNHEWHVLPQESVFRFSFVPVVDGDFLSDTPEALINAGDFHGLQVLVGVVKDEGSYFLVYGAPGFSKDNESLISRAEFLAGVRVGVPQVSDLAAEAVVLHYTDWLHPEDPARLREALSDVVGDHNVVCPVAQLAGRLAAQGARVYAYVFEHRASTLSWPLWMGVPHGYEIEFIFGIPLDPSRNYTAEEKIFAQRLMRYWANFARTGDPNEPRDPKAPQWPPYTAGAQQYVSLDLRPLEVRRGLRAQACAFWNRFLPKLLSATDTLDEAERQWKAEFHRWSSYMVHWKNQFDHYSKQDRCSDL
Description: Inhibition of human AChE using acetylthiocholine iodide as substrate incubated for 10 mins prior to substrate addition measured after 15 mins by Ellman's method

[6] = Permeability of the compound by PAMPA; type: ADME; conditions: read-out: permeability
[7] = in vitro; conditions: human, HepG2 cells; remark: listed apart in the source
Description: Cytotoxicity against human HepG2 cells assessed as cell viability at 100 uM after 24 hrs by MTT assay relative to control

[8] = test system: HepG2; assay: Cytotoxicity against human HepG2 cells assessed as cell viability after 24 hrs by MTT assay relative to control; type: cell-based; conditions: hepg2, 24 h
[9] = in vitro; conditions: human, HepG2 cells; remark: listed apart in the source
Description: Cytotoxicity against human HepG2 cells assessed as cell viability at 300 uM after 24 hrs by MTT assay relative to control

[10] = in vitro; conditions: human, HepG2 cells; remark: listed apart in the source
Description: Cytotoxicity against human HepG2 cells assessed as cell viability at 10 uM after 24 hrs by MTT assay relative to control

[11] = Neurotoxicity in Wistar rat primary cortical neurons assessed as decrease in cell viability at 50 uM by XTT assay; type: toxicity, cell-based; conditions: cerebral cortex neuron
[12] = cells; conditions: Rattus norvegicus, Wistar, Cerebral cortex neuron, 24 h
Description: Neuroprotective activity in 20 uM rotenone and 10 uM oligomycin-treated Wistar rat primary cortical neurons assessed as increase in cell viability after 24 hrs by XTT assay

[13] = target: Cholinesterase (Homo sapiens, UniProt P06276)
Sequence of Cholinesterase (P06276 whole entry): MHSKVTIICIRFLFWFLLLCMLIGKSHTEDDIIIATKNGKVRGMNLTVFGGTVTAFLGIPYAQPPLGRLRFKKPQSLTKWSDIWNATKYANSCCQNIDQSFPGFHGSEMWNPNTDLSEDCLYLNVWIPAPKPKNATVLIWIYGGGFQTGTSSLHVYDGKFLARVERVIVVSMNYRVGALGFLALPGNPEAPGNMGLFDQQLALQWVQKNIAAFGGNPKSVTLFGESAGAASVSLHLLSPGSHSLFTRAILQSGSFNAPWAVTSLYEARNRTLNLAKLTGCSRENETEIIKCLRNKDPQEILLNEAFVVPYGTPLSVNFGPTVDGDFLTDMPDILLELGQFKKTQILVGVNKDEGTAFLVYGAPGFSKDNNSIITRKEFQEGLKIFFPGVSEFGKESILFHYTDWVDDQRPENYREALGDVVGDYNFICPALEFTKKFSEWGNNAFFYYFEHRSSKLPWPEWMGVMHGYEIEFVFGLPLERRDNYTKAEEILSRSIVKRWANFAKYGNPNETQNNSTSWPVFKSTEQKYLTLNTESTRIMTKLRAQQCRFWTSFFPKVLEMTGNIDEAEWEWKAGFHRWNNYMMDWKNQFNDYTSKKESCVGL
Description: Inhibition of human BuChE using butyrylthiocholine iodide as substrate incubated for 10 mins prior to substrate addition measured after 15 mins by Ellman's method

[14] = target: T1, Acetylcholinesterase (Electrophorus electricus, UniProt O42275); assay: Mixed-type inhibition of electric eel AChE using acetylthiocholine iodide as substrate by Ellman's method
T1 sequence (O42275 whole entry): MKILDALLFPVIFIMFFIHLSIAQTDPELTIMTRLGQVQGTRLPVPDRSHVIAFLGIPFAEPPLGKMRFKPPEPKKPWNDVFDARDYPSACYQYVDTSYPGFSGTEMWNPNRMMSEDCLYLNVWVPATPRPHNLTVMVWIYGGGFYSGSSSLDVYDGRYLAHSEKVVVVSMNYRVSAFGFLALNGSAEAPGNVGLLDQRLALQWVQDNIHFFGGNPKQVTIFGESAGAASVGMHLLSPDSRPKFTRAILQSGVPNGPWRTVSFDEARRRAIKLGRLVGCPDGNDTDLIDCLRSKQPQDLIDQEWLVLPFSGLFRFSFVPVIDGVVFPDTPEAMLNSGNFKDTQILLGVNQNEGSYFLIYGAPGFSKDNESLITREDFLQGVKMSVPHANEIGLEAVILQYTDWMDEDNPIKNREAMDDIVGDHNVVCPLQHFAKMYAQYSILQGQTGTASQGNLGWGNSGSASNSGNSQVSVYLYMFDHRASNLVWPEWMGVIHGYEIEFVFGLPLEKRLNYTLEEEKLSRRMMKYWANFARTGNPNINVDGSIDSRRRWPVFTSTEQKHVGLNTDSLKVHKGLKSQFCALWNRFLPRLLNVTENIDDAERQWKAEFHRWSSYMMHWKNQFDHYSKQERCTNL

[15] = Antioxidant activity assessed as AAPH-induced radical scavenging activity incubated for 15 mins prior to AAPH induction measured every 1 min for 80 mins by ORAC-FL assay relative to trolox; type: functional
[16] = target: T1, Acetylcholinesterase; assay: Inhibition of electric eel AChE
[17] = Inhibition of voltage-dependent Ca2+ channel; conditions: concentration not given here

Row | SMILES | viability at 24 h, 3 µM [2] [%] | viability at 24 h, 30 µM [3] [%] | viability at 24 h, 1 µM [4] [%] | IC50 [5] [µM] | Papp [6] [×10⁻⁶ cm/s] | viability at 24 h, 100 µM [7] [%] | Activity [8] | viability at 24 h, 300 µM [9] [%] | viability at 24 h, 10 µM [10] [%] | Activity [11] | EC50 [12] [µM] | IC50 [13] [µM] | other results
1 | Nc1c2c(nc3c1C(c1ccc([N+](=O)[O-])cc1)c1ccc4ccccc4c1O3)CCCC2 (racemic) | 93 | 90.3 | 95 | 5.74 | 16.1 | 85 | Dose-dependent effect | 72.1 | 92.6 | Non-toxic | 2.36 | > 10 | Activity [1]: 40%
2 | COc1cc(C2c3ccc4ccccc4c3Oc3nc4c(c(N)c32)CCCC4)ccc1O (racemic) | – | – | – | 0.33 | – | – | – | – | – | – | – | > 10 | Ki [14]: 0.081 µM; fold change (FC) [15]: 1.5
3 | Nc1c2c(nc3c1C(c1ccccc1)c1ccc4ccccc4c1O3)CCCC2 (racemic) | – | – | – | 0.3 | – | – | – | – | – | – | – | > 10 | –
4 | CCOC(=O)c1c(C)nc2nc3c(c(N)c2c1-c1ccc(F)cc1)CCCC3 | – | – | – | – | – | – | – | – | – | – | – | – | IC50 [16]: 0.71 µM; inhibition [17]: 38%
5 | Nc1c2c(nc3c1C(c1ccc(Cl)c(Cl)c1)c1ccc4ccccc4c1O3)CCCC2 (racemic) | 86.2 | 68.1 | 97.5 | 5.07 | 12.3 | 63.4 | Dose-dependent effect | 61 | 79.9 | Non-toxic | 3.28 | > 10 | Activity [1]: 40%
6 | CCOC(=O)C1=C(C)Oc2nc3c(c(N)c2C1c1ccc(OC)cc1)CCCC3 (stereo not drawn) | – | – | – | – | – | – | – | – | – | – | – | – | inhibition [17]: 50%
7 | Nc1c2c(nc3c1C(c1c(Cl)cccc1Cl)c1ccc4ccccc4c1O3)CCCC2 (racemic) | – | – | – | 4.01 | – | – | – | – | – | – | – | > 10 | –
8 | COc1ccc(C2c3ccc4ccccc4c3Oc3nc4c(c(N)c32)CCCC4)c(OC)c1 (racemic) | 84.2 | 76.9 | 97.8 | 0.37 | 14.6 | 78.9 | Dose-dependent effect | 74.8 | 85.3 | Non-toxic | 11.1 | > 10 | Activity [1]: 40%
9 | Cc1ccc(C2c3ccc4ccccc4c3Oc3nc4c(c(N)c32)CCCC4)cc1 (racemic) | – | – | – | 0.4 | – | – | – | – | – | – | – | > 10 | –
10 | COc1ccccc1C1c2ccc3ccccc3c2Oc2nc3c(c(N)c21)CCCC3 (racemic) | – | – | – | 4.53 | – | – | – | – | – | – | – | 9.37 | –
11 | Nc1c2c(nc3c1C(c1ccc(O)cc1)c1ccc4ccccc4c1O3)CCCC2 (racemic) | – | – | – | 7.83 | – | – | – | – | – | – | – | > 10 | –
12 | COc1cc(C2c3ccc4ccccc4c3Oc3nc4c(c(N)c32)CCCC4)cc(OC)c1OC (racemic) | 95.6 | 96.6 | 96.5 | 3.51 | 23.4 | 94.5 | Dose-dependent effect | 93.5 | 96.4 | Non-toxic | 4.38 | > 10 | –
